According to ChEMBL document CHEMBL1138929, “Development of peptidic dopamine transporter inhibitors via aromatic modification-mediated conformational restriction” (J Med Chem, 2006):
Starred links: 1 amine or outer side, 2 acyl side, 3 side chain; linkers in the order of their positions; H or OH if unused. Non-standard residues stand in square brackets, D forms with d. Residues, ends and D or L forms follow the SMILES beside them. *: point of attachment. X1 = O=C([C@H](Cc1ccc(O)c(Cc2ccccc2)c1)N[*:1])[*:2]; Bpa = N[C@@H](Cc1ccc(C(=O)c2ccccc2)cc1)C(=O)O; Bip = N[C@@H](Cc1ccc(-c2ccccc2)cc1)C(=O)O; 1Nal = N[C@@H](Cc1cccc2ccccc12)C(=O)O; 2Nal = N[C@@H](Cc1ccc2ccccc2c1)C(=O)O; Bn = c1ccc(C*)cc1

Key:
[1] = target: T1, Sodium-dependent dopamine transporter (Rattus norvegicus, UniProt P23977); test: Inhibition of rat DAT-mediated [3H]dopamine uptake in CHO cells; format: cell-based
[2] = test system: Mus musculus; test: Effect on 10 mg/kg cocaine-induced place preference in BALB/c mouse at 10 mg/kg, sc measured as pre and procondition time difference; format: functional
[3] = test system: Mus musculus; test: Effect on cocaine-induced place preference in BALB/c mouse at 10 mg/kg, sc measured as pre and procondition time difference; format: functional; settings: route subcutaneous
[4] = test system: Mus musculus; test: Effect on place preference in BALB/c mouse at 20 mg/kg, sc measured as pre and procondition time difference; format: functional; settings: route subcutaneous
[5] = target: Sodium-dependent serotonin transporter (Rattus norvegicus, UniProt P31652); test: Inhibition of rat SERT-mediated serotonin uptake in CHO cells; format: cell-based
[6] = target: Sodium- and chloride-dependent GABA transporter 1 (Mus musculus, UniProt P31648); test: Inhibition of mouse GAT1-mediated gamma-aminobutyric acid uptake in CHO cells; format: cell-based
[7] = target: Sodium-dependent noradrenaline transporter (Rattus norvegicus) (UniProt P31652); test: Inhibition of rat NET-mediated norepinephrine uptake in CHO cells; settings: cho
[8] = target: Sodium-dependent noradrenaline transporter, Rattus norvegicus; test: as above
[9] = target: T1, Sodium-dependent dopamine transporter; test: Inhibition of [3H]WIN-35428 binding to rat DAT expressed in D8 cells; format: cell-based
[10] = test system: Mus musculus; test: Effect on place preference in BALB/c mouse at 10 mg/kg measured as pre and procondition time difference; format: functional
[11] = substrate: CC(c1ccc(-c2ccc(C[C@H](N)C(=O)O)cc2)cc1)[C@H](N)C(=O)N[C@@H](Cc1ccc(O)cc1)C(=O)N[C@H](C(=O)N1CCC[C@H]1C(=O)N[C@H](C(=O)NCC(=O)O)[C@@H](C)OCc1ccccc1)[C@@H](C)O; settings: Rattus norvegicus; D8; 600 nM
Description: Inhibition of rat DAT-mediated [3H]dopamine accumulation in D8 cells at 600 nM

[12] = substrate: CC(c1ccc(-c2ccc(C[C@H](N)C(=O)O)cc2)cc1)[C@H](N)C(=O)N[C@@H](Cc1ccc(O)cc1)C(=O)N[C@H](C(=O)N1CCC[C@H]1C(=O)N[C@H](C(=O)NCC(=O)O)[C@@H](C)OCc1ccccc1)[C@@H](C)O; settings: Rattus norvegicus; D8; 250 nM
Description: Inhibition of rat DAT-mediated [3H]dopamine accumulation in D8 cells at 250 nM

Chain of Sodium-dependent serotonin transporter (P31652 whole entry): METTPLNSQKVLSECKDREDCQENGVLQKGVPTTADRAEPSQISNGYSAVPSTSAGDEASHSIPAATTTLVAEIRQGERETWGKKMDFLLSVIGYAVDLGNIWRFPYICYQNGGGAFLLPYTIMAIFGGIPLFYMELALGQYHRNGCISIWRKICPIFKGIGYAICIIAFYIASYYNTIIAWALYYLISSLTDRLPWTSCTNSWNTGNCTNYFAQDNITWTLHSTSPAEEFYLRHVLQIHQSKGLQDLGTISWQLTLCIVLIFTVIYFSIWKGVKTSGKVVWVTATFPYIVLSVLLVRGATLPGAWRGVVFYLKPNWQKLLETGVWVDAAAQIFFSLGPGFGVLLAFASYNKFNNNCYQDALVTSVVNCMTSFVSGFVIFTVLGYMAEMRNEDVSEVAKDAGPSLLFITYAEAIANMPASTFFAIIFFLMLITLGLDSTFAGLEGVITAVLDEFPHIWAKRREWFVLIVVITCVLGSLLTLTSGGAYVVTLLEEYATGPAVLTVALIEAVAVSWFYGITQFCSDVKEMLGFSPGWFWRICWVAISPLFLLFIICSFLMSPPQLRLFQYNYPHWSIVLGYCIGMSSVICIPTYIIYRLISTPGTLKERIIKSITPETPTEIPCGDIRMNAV
Chain of Sodium-dependent noradrenaline transporter (Rattus norvegicus) (P31652 whole entry, looked up): as the sequence (P31652 whole entry) above

Question: How did the IC50 [1] turn out when `C[C@@H](O)[C@H](NC(=O)[C@H](CCCCN)NC(=O)[C@@H]1CCCN1C(=O)[C@@H](NC(=O)[C@H](Cc1ccc(O)cc1)NC(=O)[C@H](Cc1ccccc1)NC(=O)[C@@H](N)Cc1ccccc1)[C@@H](C)O)C(=O)O` (H-FFYTPKT-OH) was run?
Answer: > 1000 µM

Question: How did the IC50 [1] turn out when `C[C@@H](O)[C@H](NC(=O)[C@H](Cc1ccc(O)cc1)NC(=O)[C@@H](N)Cc1cccc2ccccc12)C(=O)N1CCC[C@H]1C(=O)N[C@@H](CCCCN)C(=O)N[C@H](C(=O)NCC(=O)O)[C@@H](C)OCc1ccccc1` (H-[1Nal]YTPKT(Bn)G-OH) was run?
Answer: 199 µM

Question: With `C[C@@H](O)[C@H](NC(=O)[C@H](Cc1ccc(O)cc1)NC(=O)[C@@H](N)Cc1ccc2ccccc2c1)C(=O)N1CCC[C@H]1C(=O)N[C@@H](CCCCN)C(=O)N[C@H](C(=O)NCC(=O)O)[C@@H](C)OCc1ccccc1` (H-[2Nal]YTPKT(Bn)G-OH) as the molecule, how does the IC50 [1] read?
Answer: 184 µM

Question: Which IC50 ([1]; cho) does the source give for `C[C@H](NC(=O)[C@@H](N)Cc1ccc(-c2ccccc2)cc1)C(=O)N[C@H](C(=O)N1CCC[C@H]1C(=O)N[C@@H](CCCCN)C(=O)N[C@H](C(=O)NCC(=O)O)[C@@H](C)OCc1ccccc1)[C@@H](C)O` (H-[Bip]ATPKT(Bn)G-OH) here?
Answer: 173 µM

Question: With `C[C@H](NC(=O)[C@H](Cc1ccc(O)cc1)NC(=O)[C@@H](N)Cc1ccc(-c2ccccc2)cc1)C(=O)N1CCC[C@H]1C(=O)N[C@@H](CCCCN)C(=O)N[C@H](C(=O)NCC(=O)O)[C@@H](C)OCc1ccccc1` (H-[Bip]YAPKT(Bn)G-OH) as the molecule, how does the IC50 ([1]; cho) read?
Answer: 11 µM

Question: Which IC50 ([1]; cho) does the source give for `C[C@@H](O)[C@H](NC(=O)[C@H](CCCCN)NC(=O)[C@@H]1CCCN1C(=O)[C@@H](NC(=O)[C@H](Cc1ccc(O)cc1)NC(=O)[C@@H](N)Cc1ccc(-c2ccccc2)cc1)[C@@H](C)OCc1ccccc1)C(=O)NCC(=O)O` (H-[Bip]YT(Bn)PKTG-OH) here?
Answer: 20 µM

Question: `C[C@H](NC(=O)[C@@H](NC(=O)[C@H](Cc1ccc(O)cc1)NC(=O)[C@@H](N)Cc1ccc(-c2ccccc2)cc1)[C@@H](C)O)C(=O)N[C@@H](CCCCN)C(=O)N[C@H](C(=O)NCC(=O)O)[C@@H](C)OCc1ccccc1` (H-[Bip]YTAKT(Bn)G-OH) was tested. Which IC50 ([1]; cho) did it give?
Answer: > 1000 µM

Question: How did the IC50 ([1]; cho) turn out when `C[C@H](NC(=O)[C@@H](NC(=O)[C@H](Cc1ccc(O)cc1)NC(=O)[C@@H](N)Cc1ccc(-c2ccccc2)cc1)[C@@H](C)O)C(=O)N[C@H](C(=O)NCC(=O)O)[C@@H](C)OCc1ccccc1` (H-[Bip]YTAT(Bn)G-OH) [listing 1 of 2 here] was run?
Answer: > 1000 µM

Question: With `C[C@H](NC(=O)[C@@H](NC(=O)[C@H](Cc1ccc(O)cc1)NC(=O)[C@@H](N)Cc1ccc(-c2ccccc2)cc1)[C@@H](C)O)C(=O)N[C@H](C(=O)NCC(=O)O)[C@@H](C)OCc1ccccc1` (H-[Bip]YTAT(Bn)G-OH) [listing 2 of 2 here] as the molecule, how does the Activity [2] read?
Answer: 200 s

Question: What about the Activity [3] of the same molecule?
Answer: 209 s

Question: And the Activity [4]?
Answer: -14 s

Question: For `C[C@H](NC(=O)[C@@H]1CCCN1C(=O)[C@@H](NC(=O)[C@H](Cc1ccc(O)cc1)NC(=O)[C@@H](N)Cc1ccc(-c2ccccc2)cc1)[C@@H](C)O)C(=O)N[C@H](C(=O)NCC(=O)O)[C@@H](C)OCc1ccccc1` (H-[Bip]YTPAT(Bn)G-OH), which IC50 ([1]; cho) is on record?
Answer: 1.7 µM

Question: Which IC50 ([1]; cho) does the source give for `C[C@@H](O)[C@H](NC(=O)[C@H](Cc1ccc(O)cc1)NC(=O)[C@@H](N)Cc1ccc(-c2ccccc2)cc1)C(=O)N1CCC[C@H]1C(=O)N[C@@H](CCCCN)C(=O)N[C@H](C(=O)NCC(=O)O)[C@@H](C)OCc1ccccc1` (H-[Bip]YTPKT(Bn)G-OH) here?
Answer: 1.8 µM

Question: What does the source list for `C[C@@H](O)[C@H](NC(=O)[C@H](CCCCN)NC(=O)[C@@H]1CCCN1C(=O)[C@@H](NC(=O)[C@H](Cc1ccc(O)cc1)NC(=O)[C@@H](N)Cc1ccc(-c2ccccc2)cc1)[C@@H](C)O)C(=O)O` (H-[Bip]YTPKT-OH)?
Answer: IC50 ([1]; cho): 19 µM; IC50 ([5]; cho): > 1000 µM; IC50 ([6]; cho): > 1000 µM; IC50 [7]: > 1000 µM

Question: `C[C@@H](O)[C@H](NC(=O)[C@H](Cc1ccc(O)cc1)NC(=O)[C@@H](N)Cc1ccc(-c2ccccc2)cc1)C(=O)N1CCC[C@H]1C(=O)N[C@H](C(=O)NCC(=O)O)[C@@H](C)OCc1ccccc1` (H-[Bip]YTPT(Bn)G-OH) [listing 1 of 2 here] was tested. Which IC50 [1] did it give?
Answer: 0.3 µM

Question: What about the IC50 [5] of the same molecule?
Answer: 110 µM

Question: And the IC50 [6]?
Answer: > 1000 µM

Question: And the IC50 [8]?
Answer: 90 µM

Question: What about the IC50 [9] of the same molecule?
Answer: 0.494 µM

Question: For `C[C@@H](O)[C@H](NC(=O)[C@H](Cc1ccc(O)cc1)NC(=O)[C@@H](N)Cc1ccc(-c2ccccc2)cc1)C(=O)N1CCC[C@H]1C(=O)N[C@H](C(=O)NCC(=O)O)[C@@H](C)OCc1ccccc1` (H-[Bip]YTPT(Bn)G-OH) [listing 2 of 2 here], which Activity [2] is on record?
Answer: 78 s

Question: And the Activity [3]?
Answer: 61 s

Question: What about the Activity [4] of the same molecule?
Answer: -16 s

Question: How did the IC50 ([1]; cho) turn out when `C[C@@H](O)[C@H](NC(=O)[C@H](CCCCN)NC(=O)[C@@H]1CCCN1C(=O)[C@@H](NC(=O)[C@H](Cc1ccc(O)c(Cc2ccccc2)c1)NC(=O)[C@@H](N)Cc1ccc(-c2ccccc2)cc1)[C@@H](C)O)C(=O)O` (H-[Bip][X1]TPKT-OH) was run?
Answer: 10 µM

Question: With `C[C@@H](O)[C@H](NC(=O)[C@H](Cc1ccc(O)cc1)NC(=O)[C@@H](N)Cc1ccc(C(=O)c2ccccc2)cc1)C(=O)N1CCC[C@H]1C(=O)N[C@@H](CCCCN)C(=O)N[C@H](C(=O)NCC(=O)O)[C@@H](C)OCc1ccccc1` (H-[Bpa]YTPKT(Bn)G-OH) as the molecule, how does the IC50 [1] read?
Answer: 239 µM

Question: How did the Activity [10] turn out when `COC(=O)[C@H]1[C@@H](OC(=O)c2ccccc2)C[C@@H]2CC[C@H]1N2C` [COCAINE] was run?
Answer: 194 s

B1: Sodium-dependent dopamine transporter (Rattus norvegicus), P23977 (protein)
chain: MSKSKCSVGPMSSVVAPAKESNAVGPREVELILVKEQNGVQLTNSTLINPPQTPVEAQERETWSKKIDFLLSVIGFAVDLANVWRFPYLCYKNGGGAFLVPYLLFMVIAGMPLFYMELALGQFNREGAAGVWKICPVLKGVGFTVILISFYVGFFYNVIIAWALHYFFSSFTMDLPWIHCNNTWNSPNCSDAHASNSSDGLGLNDTFGTTPAAEYFERGVLHLHQSRGIDDLGPPRWQLTACLVLVIVLLYFSLWKGVKTSGKVVWITATMPYVVLTALLLRGVTLPGAMDGIRAYLSVDFYRLCEASVWIDAATQVCFSLGVGFGVLIAFSSYNKFTNNCYRDAIITTSINSLTSFSSGFVVFSFLGYMAQKHNVPIRDVATDGPGLIFIIYPEAIATLPLSSAWAAVFFLMLLTLGIDSAMGGMESVITGLVDEFQLLHRHRELFTLGIVLATFLLSLFCVTNGGIYVFTLLDHFAAGTSILFGVLIEAIGVAWFYGVQQFSDDIKQMTGQRPNLYWRLCWKLVSPCFLLYVVVVSIVTFRPPHYGAYIFPDWANALGWIIATSSMAMVPIYATYKFCSLPGSFREKLAYAITPEKDHQLVDRGEVRQFTLRHWLLL
Question: How did the Km [11] turn out when B1 was run?
Answer: 3.6 µM

Question: What about the Km [12] of the same molecule?
Answer: 2.42 µM
